Assay results from ChEMBL document CHEMBL1909046, “DrugMatrix in vitro pharmacology data”.

Assays:
[1] = DRUGMATRIX: Sodium/nucleoside co-transporter radioligand binding (ligand: nitrobenzylthioinosine); type: cell membranes, Cavia porcellus, Dunkin-Hartley, Cerebral cortex, Membrane; conditions: Not Active = under 50% inhibition at 10 µM
[2] = biological target: Beta-2 adrenergic receptor (Homo sapiens, UniProt P07550); experiment: DRUGMATRIX: Adrenergic beta2 radioligand binding (ligand: [3H] CGP-12177); type: cell membranes, Membrane; conditions: cho; Not Active = under 50% inhibition at 10 µM
[3] = biological target: 5-hydroxytryptamine receptor 4 (Cavia porcellus, UniProt O70528); type: cell membranes, Dunkin-Hartley, Striatum, Membrane; note: in other assays of this panel Not Active means under 50% inhibition at 10 µM
[4] = biological target: T1, C-X-C chemokine receptor type 1 (Homo sapiens, UniProt P25024); note: in other assays of this panel Not Active means under 50% inhibition at 10 µM
T1 sequence (P25024 whole entry): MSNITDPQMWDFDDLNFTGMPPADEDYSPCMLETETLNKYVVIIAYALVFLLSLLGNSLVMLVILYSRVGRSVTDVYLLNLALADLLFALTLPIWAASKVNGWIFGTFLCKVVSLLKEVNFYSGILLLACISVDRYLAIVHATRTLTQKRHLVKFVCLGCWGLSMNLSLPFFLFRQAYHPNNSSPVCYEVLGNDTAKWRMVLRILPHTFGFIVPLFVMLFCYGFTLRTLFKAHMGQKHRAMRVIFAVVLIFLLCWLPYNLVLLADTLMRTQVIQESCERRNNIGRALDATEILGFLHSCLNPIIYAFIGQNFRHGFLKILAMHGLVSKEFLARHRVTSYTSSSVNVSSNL

[5] = biological target: T2, Cholecystokinin receptor type A (Homo sapiens, UniProt P32238); type: cell membranes, Membrane; conditions: 1321-n1; note: in other assays of this panel Not Active means under 50% inhibition at 10 µM
T2 sequence (P32238 whole entry): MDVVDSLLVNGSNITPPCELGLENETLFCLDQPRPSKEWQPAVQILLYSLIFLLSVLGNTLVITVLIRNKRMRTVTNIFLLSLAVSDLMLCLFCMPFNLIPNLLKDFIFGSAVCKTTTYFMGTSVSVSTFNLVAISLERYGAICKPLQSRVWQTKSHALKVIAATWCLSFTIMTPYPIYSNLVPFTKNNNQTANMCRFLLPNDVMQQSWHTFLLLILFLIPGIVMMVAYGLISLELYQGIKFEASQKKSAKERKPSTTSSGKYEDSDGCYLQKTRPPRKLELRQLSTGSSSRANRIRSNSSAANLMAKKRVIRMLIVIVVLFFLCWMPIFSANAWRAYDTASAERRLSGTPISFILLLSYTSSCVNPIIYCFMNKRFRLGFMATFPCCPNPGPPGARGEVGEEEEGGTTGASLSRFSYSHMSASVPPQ

[6] = biological target: Histamine H2 receptor (Homo sapiens, UniProt P25021); type: cell membranes, CHO-K1, Membrane; conditions: cho-k1; note: in other assays of this panel Not Active means under 50% inhibition at 10 µM
[7] = DRUGMATRIX: Imidazoline I2, Central radioligand binding (ligand: [3H] Idazoxan); type: cell membranes, Rattus norvegicus, Wistar, Cerebral cortex, Membrane; conditions: Not Active = under 50% inhibition at 10 µM
[8] = biological target: Insulin receptor (Rattus norvegicus, UniProt P15127); type: cell membranes, Wistar, Liver, Membrane; note: in other assays of this panel Not Active means under 50% inhibition at 10 µM
[9] = DRUGMATRIX: Leukotriene, BLT (LTB4) radioligand binding (ligand: [3H]LTB4); type: cell membranes, Membrane; conditions: u-937; Not Active = under 50% inhibition at 10 µM
[10] = biological target: Melanocortin receptor 3 (Homo sapiens, UniProt P41968); type: cell membranes, Membrane; conditions: hek293; note: in other assays of this panel Not Active means under 50% inhibition at 10 µM
[11] = biological target: T3, Muscarinic acetylcholine receptor M4 (Homo sapiens, UniProt P08173); type: cell membranes, CHO-K1, Membrane; conditions: cho-k1; note: in other assays of this panel Not Active means under 50% inhibition at 10 µM
T3 sequence (P08173 whole entry): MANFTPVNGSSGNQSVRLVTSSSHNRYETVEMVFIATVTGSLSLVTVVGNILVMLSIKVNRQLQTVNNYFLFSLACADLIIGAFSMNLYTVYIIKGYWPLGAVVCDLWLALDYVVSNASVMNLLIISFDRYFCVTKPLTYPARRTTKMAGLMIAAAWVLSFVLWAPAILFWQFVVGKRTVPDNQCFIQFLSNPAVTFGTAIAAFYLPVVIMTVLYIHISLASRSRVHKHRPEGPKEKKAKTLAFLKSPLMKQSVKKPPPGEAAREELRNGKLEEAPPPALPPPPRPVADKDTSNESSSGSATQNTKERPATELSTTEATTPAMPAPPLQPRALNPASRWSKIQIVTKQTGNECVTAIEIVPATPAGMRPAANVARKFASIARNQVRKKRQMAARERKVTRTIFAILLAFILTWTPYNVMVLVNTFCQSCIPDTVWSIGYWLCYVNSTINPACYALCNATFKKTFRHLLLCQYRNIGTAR

[12] = biological target: T4, Cytochrome P450 1A2 (Homo sapiens, UniProt P05177); conditions: bti-tn-5b1-4; note: in other assays of this panel Not Active means under 50% inhibition at 10 µM
T4 sequence (P05177 whole entry): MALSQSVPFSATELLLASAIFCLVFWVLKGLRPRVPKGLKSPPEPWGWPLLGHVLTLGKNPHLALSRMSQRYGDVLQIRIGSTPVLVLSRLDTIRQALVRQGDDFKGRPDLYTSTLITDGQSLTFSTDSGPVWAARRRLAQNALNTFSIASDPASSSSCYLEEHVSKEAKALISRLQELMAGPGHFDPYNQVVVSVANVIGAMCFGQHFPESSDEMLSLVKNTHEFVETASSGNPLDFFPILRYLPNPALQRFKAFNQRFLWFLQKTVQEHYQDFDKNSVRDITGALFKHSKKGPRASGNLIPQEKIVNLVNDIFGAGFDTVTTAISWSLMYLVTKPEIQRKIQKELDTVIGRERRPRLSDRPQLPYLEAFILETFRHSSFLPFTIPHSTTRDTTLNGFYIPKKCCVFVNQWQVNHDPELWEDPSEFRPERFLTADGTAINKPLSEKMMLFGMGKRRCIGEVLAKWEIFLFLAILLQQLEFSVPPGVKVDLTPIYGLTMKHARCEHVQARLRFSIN

[13] = biological target: Cytochrome P450 2D6 (Homo sapiens, UniProt P10635); conditions: bti-tn-5b1-4; note: in other assays of this panel Not Active means under 50% inhibition at 10 µM
[14] = biological target: Estrogen receptor beta (Homo sapiens, UniProt Q92731); conditions: sf9; note: in other assays of this panel Not Active means under 50% inhibition at 10 µM
Chain of Estrogen receptor beta (Q92731 whole entry): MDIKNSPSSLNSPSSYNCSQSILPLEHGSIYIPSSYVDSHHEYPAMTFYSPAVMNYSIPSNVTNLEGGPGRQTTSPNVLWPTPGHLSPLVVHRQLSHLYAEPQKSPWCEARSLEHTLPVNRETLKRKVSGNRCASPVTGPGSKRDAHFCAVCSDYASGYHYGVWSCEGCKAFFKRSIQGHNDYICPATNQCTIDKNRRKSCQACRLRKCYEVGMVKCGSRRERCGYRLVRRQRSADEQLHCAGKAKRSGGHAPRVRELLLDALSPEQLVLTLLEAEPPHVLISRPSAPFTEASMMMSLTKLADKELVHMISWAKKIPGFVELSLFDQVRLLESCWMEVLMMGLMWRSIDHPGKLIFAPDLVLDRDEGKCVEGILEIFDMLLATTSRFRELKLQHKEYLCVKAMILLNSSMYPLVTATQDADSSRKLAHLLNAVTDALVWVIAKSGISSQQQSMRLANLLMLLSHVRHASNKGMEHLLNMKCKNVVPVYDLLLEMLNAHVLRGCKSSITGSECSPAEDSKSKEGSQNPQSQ

Chain of Melanocortin receptor 3 (P41968 whole entry): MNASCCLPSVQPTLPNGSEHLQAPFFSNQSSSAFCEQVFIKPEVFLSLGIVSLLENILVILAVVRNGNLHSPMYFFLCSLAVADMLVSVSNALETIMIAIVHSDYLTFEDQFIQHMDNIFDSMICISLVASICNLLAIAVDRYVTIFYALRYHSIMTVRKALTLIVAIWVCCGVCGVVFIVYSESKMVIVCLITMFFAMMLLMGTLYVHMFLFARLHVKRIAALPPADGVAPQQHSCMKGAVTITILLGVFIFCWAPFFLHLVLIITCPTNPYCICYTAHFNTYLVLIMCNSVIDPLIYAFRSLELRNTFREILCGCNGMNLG
Chain of Histamine H2 receptor (P25021 whole entry): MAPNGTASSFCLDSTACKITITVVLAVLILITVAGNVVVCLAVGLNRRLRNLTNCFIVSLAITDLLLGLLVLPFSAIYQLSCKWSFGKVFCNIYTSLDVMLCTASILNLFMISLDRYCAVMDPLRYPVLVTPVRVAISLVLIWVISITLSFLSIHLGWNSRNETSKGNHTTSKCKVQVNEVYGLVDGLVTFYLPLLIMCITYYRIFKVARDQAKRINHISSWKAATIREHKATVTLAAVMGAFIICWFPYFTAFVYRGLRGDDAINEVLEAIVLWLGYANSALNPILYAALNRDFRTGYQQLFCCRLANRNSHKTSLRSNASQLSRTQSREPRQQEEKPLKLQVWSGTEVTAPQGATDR
Chain of Cytochrome P450 2D6 (P10635 whole entry): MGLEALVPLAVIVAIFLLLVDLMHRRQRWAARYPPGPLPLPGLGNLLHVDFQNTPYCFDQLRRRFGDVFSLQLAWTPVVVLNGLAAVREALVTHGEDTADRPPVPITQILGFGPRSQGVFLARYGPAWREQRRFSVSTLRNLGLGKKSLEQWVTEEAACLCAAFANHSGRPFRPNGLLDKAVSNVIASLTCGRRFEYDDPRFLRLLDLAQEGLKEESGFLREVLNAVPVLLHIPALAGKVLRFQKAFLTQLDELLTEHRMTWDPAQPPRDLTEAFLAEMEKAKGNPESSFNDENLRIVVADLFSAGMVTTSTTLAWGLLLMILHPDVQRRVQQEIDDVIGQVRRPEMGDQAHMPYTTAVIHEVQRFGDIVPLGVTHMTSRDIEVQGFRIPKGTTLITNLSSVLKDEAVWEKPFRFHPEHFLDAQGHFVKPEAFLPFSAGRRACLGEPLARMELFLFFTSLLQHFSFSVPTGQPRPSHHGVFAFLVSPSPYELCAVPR
Chain of 5-hydroxytryptamine receptor 4 (O70528 whole entry): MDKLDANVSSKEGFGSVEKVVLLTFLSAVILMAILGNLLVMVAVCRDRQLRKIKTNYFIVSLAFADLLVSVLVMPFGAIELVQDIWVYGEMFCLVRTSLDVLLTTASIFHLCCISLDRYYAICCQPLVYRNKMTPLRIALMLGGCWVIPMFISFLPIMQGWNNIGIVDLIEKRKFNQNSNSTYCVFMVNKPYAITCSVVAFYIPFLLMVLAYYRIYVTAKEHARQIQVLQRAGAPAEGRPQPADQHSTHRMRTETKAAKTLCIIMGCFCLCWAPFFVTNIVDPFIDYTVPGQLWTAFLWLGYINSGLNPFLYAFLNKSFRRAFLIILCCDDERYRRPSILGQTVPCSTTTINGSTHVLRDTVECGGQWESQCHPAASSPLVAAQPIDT
Chain of Beta-2 adrenergic receptor (P07550 whole entry): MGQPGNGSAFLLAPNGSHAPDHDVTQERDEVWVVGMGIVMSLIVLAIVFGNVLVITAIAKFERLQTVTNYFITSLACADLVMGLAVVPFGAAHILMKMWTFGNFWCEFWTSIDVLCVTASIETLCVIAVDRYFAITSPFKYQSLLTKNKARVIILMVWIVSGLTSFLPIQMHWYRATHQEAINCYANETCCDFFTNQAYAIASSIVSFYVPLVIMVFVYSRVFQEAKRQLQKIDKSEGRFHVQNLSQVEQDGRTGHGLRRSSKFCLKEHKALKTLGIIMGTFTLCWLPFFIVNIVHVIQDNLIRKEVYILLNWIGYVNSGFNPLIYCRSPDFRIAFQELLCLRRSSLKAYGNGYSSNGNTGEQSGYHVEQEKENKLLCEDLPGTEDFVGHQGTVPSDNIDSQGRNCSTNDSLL
Chain of Insulin receptor (P15127 27-759 limits assumed): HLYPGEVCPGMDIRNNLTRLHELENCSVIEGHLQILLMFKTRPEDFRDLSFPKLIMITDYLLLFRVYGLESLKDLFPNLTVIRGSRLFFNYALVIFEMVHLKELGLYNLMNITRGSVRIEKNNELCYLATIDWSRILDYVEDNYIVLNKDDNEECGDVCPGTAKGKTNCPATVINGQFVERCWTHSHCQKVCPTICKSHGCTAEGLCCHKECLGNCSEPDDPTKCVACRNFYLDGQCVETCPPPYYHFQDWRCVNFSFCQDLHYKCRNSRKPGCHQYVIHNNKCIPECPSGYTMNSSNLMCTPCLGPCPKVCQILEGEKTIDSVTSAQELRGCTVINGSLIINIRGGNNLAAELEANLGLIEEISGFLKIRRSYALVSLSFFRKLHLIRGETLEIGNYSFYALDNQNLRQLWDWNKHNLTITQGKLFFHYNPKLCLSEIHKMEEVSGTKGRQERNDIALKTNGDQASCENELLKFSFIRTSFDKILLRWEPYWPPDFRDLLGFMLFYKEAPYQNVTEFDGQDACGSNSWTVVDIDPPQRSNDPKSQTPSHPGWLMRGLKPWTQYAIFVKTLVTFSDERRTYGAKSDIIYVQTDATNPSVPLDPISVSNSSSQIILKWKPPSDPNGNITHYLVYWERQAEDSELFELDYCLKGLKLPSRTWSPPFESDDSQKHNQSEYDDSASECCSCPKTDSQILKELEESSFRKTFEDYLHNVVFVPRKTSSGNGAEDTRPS
Chain of Insulin receptor (P15127 764-1383 limits assumed): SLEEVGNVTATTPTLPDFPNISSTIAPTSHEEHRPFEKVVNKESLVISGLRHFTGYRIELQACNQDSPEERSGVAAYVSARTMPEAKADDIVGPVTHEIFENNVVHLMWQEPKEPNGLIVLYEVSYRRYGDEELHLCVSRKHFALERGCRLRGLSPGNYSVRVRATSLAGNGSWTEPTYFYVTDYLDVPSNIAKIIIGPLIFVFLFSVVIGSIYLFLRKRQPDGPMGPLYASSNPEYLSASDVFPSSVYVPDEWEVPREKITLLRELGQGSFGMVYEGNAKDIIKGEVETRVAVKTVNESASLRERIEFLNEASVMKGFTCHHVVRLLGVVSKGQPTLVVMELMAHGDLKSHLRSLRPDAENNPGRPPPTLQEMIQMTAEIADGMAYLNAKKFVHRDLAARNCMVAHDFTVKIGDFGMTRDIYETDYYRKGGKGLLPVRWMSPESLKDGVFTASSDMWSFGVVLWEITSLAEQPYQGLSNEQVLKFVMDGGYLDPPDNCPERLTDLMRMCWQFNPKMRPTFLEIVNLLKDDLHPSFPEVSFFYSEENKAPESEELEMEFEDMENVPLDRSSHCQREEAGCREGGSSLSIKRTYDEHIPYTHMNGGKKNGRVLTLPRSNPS

C/C=C1\[C@H]2C=C(C)C[C@]1(N)c1ccc(=O)[nH]c1C2 [HUPERZINE A]
Not Active: IC50 [1] | Ki [1] | IC50 [2] | IC50 [3] | IC50 [4] | IC50 [5] | IC50 [6] | IC50 [7] | Ki [7] | IC50 [8] | IC50 [9] | Ki [9] | IC50 [10] | IC50 [11] | IC50 [12] | Ki [12] | IC50 [13] | Ki [13] | IC50 [14]

CC(/C=C1\SC(=S)N(CC(=O)O)C1=O)=C\c1ccccc1
Not Active: IC50 [1] | Ki [1] | IC50 [2] | IC50 [3] | IC50 [4] | IC50 [5] | IC50 [6] | IC50 [7] | Ki [7] | IC50 [8] | IC50 [9] | Ki [9] | IC50 [10] | IC50 [11] | IC50 [12] | Ki [12] | IC50 [13] | Ki [13] | IC50 [14]

CCC1(c2ccccc2)C(=O)NCNC1=O [PRIMIDONE]
Not Active: IC50 [1] | Ki [1] | IC50 [2] | IC50 [3] | IC50 [4] | IC50 [5] | IC50 [6] | IC50 [7] | Ki [7] | IC50 [8] | IC50 [9] | Ki [9] | IC50 [10] | IC50 [11] | IC50 [12] | Ki [12] | IC50 [13] | Ki [13] | IC50 [14]

CCOC(=O)c1ccc(N)cc1 [BENZOCAINE]
Not Active: IC50 [1] | Ki [1] | IC50 [2] | IC50 [3] | IC50 [4] | IC50 [5] | IC50 [6] | IC50 [7] | Ki [7] | IC50 [8] | IC50 [9] | Ki [9] | IC50 [10] | IC50 [11] | IC50 [12] | Ki [12] | IC50 [13] | Ki [13] | IC50 [14]

CC(=O)O[C@]1(C(C)=O)CC[C@H]2[C@@H]3C=C(Cl)C4=CC(=O)CC[C@]4(C)[C@H]3CC[C@@]21C [CHLORMADINONE ACETATE]
Not Active: IC50 [1] | Ki [1] | IC50 [2] | IC50 [3] | IC50 [4] | IC50 [5] | IC50 [6] | IC50 [7] | Ki [7] | IC50 [8] | IC50 [9] | Ki [9] | IC50 [10] | IC50 [11] | IC50 [12] | Ki [12] | IC50 [13] | Ki [13] | IC50 [14]

Cn1cnc([N+](=O)[O-])c1Sc1ncnc2nc[nH]c12 [AZATHIOPRINE]
Not Active: IC50 [1] | Ki [1] | IC50 [2] | IC50 [3] | IC50 [4] | IC50 [5] | IC50 [6] | IC50 [7] | Ki [7] | IC50 [8] | IC50 [9] | Ki [9] | IC50 [10] | IC50 [11] | IC50 [12] | Ki [12] | IC50 [13] | Ki [13] | IC50 [14]

Oc1c(Cl)cc(Cl)cc1Sc1cc(Cl)cc(Cl)c1O [BITHIONOL]
Not Active: IC50 [1] | Ki [1] | IC50 [2] | IC50 [3] | IC50 [4] | IC50 [5] | IC50 [6] | IC50 [7] | Ki [7] | IC50 [8] | IC50 [9] | Ki [9] | IC50 [10] | IC50 [11] | IC50 [12] | Ki [12] | IC50 [13] | Ki [13] | IC50 [14]

COC1=CC(=O)C[C@@H](C)[C@]12Oc1c(Cl)c(OC)cc(OC)c1C2=O [GRISEOFULVIN]
Not Active: IC50 [1] | Ki [1] | IC50 [2] | IC50 [3] | IC50 [4] | IC50 [5] | IC50 [6] | IC50 [7] | Ki [7] | IC50 [8] | IC50 [9] | Ki [9] | IC50 [10] | IC50 [11] | IC50 [12] | Ki [12] | IC50 [13] | Ki [13] | IC50 [14]

Nc1nc2c(ncn2COC(CO)CO)c(=O)[nH]1 [GANCICLOVIR]
Not Active: IC50 [1] | Ki [1] | IC50 [2] | IC50 [3] | IC50 [4] | IC50 [5] | IC50 [6] | IC50 [7] | Ki [7] | IC50 [8] | IC50 [9] | Ki [9] | IC50 [10] | IC50 [11] | IC50 [12] | Ki [12] | IC50 [13] | Ki [13] | IC50 [14]
